Data taken from US12637476B2, “Substituted carbamate macrocyclic compounds and related methods of treatment” (Alkermes, Inc., priority 2021, dated 2026).

Target: T1, human orexin-2 receptor (OX2R) (Homo sapiens, UniProt O43614)
T1 construct: expressed in transfected cells; host or cells: T-Rex CHO cells, induced with doxycycline
T1 sequence (O43614 1-444): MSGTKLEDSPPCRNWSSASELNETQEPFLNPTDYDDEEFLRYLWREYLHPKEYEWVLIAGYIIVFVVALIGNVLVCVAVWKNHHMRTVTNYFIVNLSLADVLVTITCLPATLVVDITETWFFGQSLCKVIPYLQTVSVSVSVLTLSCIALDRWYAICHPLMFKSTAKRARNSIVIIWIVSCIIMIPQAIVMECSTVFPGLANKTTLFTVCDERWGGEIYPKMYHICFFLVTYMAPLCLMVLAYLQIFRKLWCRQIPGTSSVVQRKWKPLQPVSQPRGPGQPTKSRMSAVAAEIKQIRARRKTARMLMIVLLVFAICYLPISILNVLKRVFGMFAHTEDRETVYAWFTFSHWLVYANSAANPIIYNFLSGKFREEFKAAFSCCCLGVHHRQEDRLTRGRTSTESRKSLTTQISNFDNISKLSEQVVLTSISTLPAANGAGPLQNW
Assay: Human OX2R IP1 assay
Type: cell-based
Settings: T-Rex CHO cells stably overexpressing human OX2R, IP1 accumulation, 1 hr at 37 degrees C
Experimental: T-Rex CHO cells stably overexpressing the human orexin-2 receptor (OX2R) were induced overnight with 1 μg/mL of doxycycline in a T225 flask. 24 hours post induction, cells were lifted with accutase and plated into a 384-well proxy plate at 30,000 cells/well. Cells were then treated with different test compounds in 1× stimulation buffer containing 10 mM Hepes, 1 mM CaCl2, 0.5 mM MgCl2, 4.2 mM KCl, 146 mM NaCl, 5.5 mM glucose, and 50 mM LiCl, pH 7.4, for 1 hr at 37 degrees C. Following incubation, the reaction was terminated by the addition of detection mix, which is composed of IP1-d2 and anti-IP1-cryptate diluted in lysis buffer as well as 1× stimulation buffer. The plates were allowed to incubate for 1 hour at room temperature and were then read in the EnVision® multimode plate reader, measuring inositol phosphate levels.
Cisbio IP1 is a cell-based functional assay quantifying the accumulation of inositol monophosphate (IP), a metabolite released as a result of orexin 2 receptor activation through the phospholipase C-Gq signaling pathway. This is a competitive immunoassay in which the IP1 produced by the cells upon receptor activation competes with the IP1 analog coupled to the d2 fluorophore (acceptor) for binding to an anti-IP1 monoclonal antibody labeled with Eu cryptate (donor). The measured HTRF-FRET based signal is inversely proportional to the IP1 concentration produced.
The EC50 values reported in Table 2 were obtained according to the human OX2R IP1 assay described above. Data are the mean EC50 values±S.E.M.

SMILES	EC50
CS(=O)(=O)N[C@H]1CCCN2C(=O)COC(=O)N(C3CC3)[C@H]3CC[C@H](CC3)OC[C@@H]12 [Compound 3]	100 to 1000 nM
CN1C(=O)OCC(=O)N2CCC[C@H](NS(C)(=O)=O)[C@@H]2CO[C@H]2CC[C@@H]1CC2 [Compound 2]	100 to 1000 nM
CCN1C(=O)OCC(=O)N2CCC[C@H](NS(C)(=O)=O)[C@@H]2CO[C@H]2CC[C@@H]1CC2 [Compound 1]	100 to 1000 nM

The remaining lines, values ahead:

EC50	SMILES
> 1000 nM	CS(=O)(=O)N[C@H]1CCCN2C(=O)COC(=O)N(CC(F)(F)F)[C@H]3CC[C@H](CC3)OC[C@@H]12 [Compound 11]
100 to 1000 nM	CS(=O)(=O)N[C@H]1CCCN2C(=O)COC(=O)N(CC3CC3)[C@H]3CC[C@H](CC3)OC[C@@H]12 [Compound 10]
